Assay results published in US20150005288A1, “SUBSTITUTED PHENYLIMIDAZOPYRAZOLES AND USE THEREOF” (Bayer Intellectual Property GmbH, priority 2012, published 2015).

Target: T1, intracellular domain of human Tie2 (GST fusion protein) (Homo sapiens, UniProt Q02763)
T1 construct: intracellular domain of human Tie2 (amino acids 776-1124); made in house; host or cells: Baculovirus-infected insect cells (Hi5)
Experiment: Tie2 kinase assay (Tie2-TR-FRET)
Format: biochemical
Conditions: ATP concentration 1 mM, in some cases means of several independent determinations
Protocol: The Tie2-inhibitory activity of the substances according to the invention was determined with the aid of one of the Tie2-TR-FRET assays described in the sections below at an ATP concentration of 1 mM (TR-FRET=Time-Resolved Fluorescence Resonance Energy Transfer):
The enzyme used was a recombinant fusion protein of glutathione S-transferase (GST) and the intracellular domain of human Tie2 (amino acids 776-1124) which was expressed in Baculovirus-infected insect cells (Hi5) and was purified by affinity chromatography on glutathione-Sepharose. Alternatively, it is also possible to use commercially available GST-His6-Tie2 fusion protein (ProQinase GmbH, Freiburg im Breisgau, Germany). The substrate used for the kinase reaction was the biotinylated peptide biotin-Ahx-[…] (C-terminus in amide form) which is commercially available (for example from Biosyntan, Berlin, Germany).
For the assay, 50 nl of a 100-fold concentrated solution of the respective test substance in DMSO were pipetted into a black low-volume 384-well microtitre plate (Greiner Bio-One, Frickenhausen, Germany) 2 μl of a solution of the Tie2 fusion protein in assay buffer [50 mM HEPES/HCl pH 7, 10 mM MgCl2, 2.5 mM MnCl2, 1 mM dithiothreitol, 0.01% (v/v) Nonidet P-40, 0.1% (w/v) bovine serum albumin (BSA), 1× Complete EDTA-free protease inhibitor mixture (Roche)] were added, and the mixture was incubated for 15 min to allow pre-binding of the substance to the enzyme prior to the kinase reaction. The kinase reaction was then started by adding 3 μl of a solution of adenosine triphosphate (ATP, 1.67 mM→final concentration in 5 μl assay volume=1 mM) and substrate (1.67 μM→final concentration in 5 μl assay volume=1 μM) in assay buffer, and the resulting mixture was incubated for a reaction time of 60 min at 22° C. The concentration of the Tie2 fusion protein was adapted to the respective activity of the enzyme and adjusted such that the assay was carried out in the linear range. Typical concentrations were in the range of 30 ng/ml.
The reaction was stopped by addition of 5 μl of a solution of TR-FRET detection reagents [200 nM streptavidin-XL665 and 2 nM PT66-Eu chelate, a europium chelate-labelled anti-phosphotyrosine antibody (Perkin-Elmer); alternatively, it is also possible to use PT66-Tb cryptate (Cisbio Bioassays, Codolet, France)] in aqueous EDTA solution[90 mM EDTA, 0.28% (w/v) bovine serum albumin (BSA) in 50 mM HEPES pH 7.5]. The resulting mixture was incubated at 22° C. for 1 h to allow formation of the complex of the biotinylated phosphorylated substrate and the detection reagents. The amount of phosphorylated substrate was then determined by measuring the resonance energy transfer from PT66-Eu chelate to streptavidin-XL665. To this end, the fluorescence emissions at 620 nm and 665 nm after excitation at 350 nm were measured in a TR-FRET measuring instrument (for example Viewlux, Perkin-Elmer). The ratio of the emissions at 665 nm and at 620 nm was taken as a measure of the amount of phosphorylated substrate.
Usually, the test substance in question was tested on the same microtitre plate at […] different concentrations in the range from 20 μM to 0.073 nM (for example at 20 μM, 5.7 μM, 1.6 μM, 0.47 μM, 0.13 μM, 38 nM, 11 nM, 3.1 nM, 0.89 nM, 0.25 nM and 0.073 nM) in duplicate for each concentration. The dilution series were prepared prior to the assay at the stage of the 100-fold concentrated solution by serial dilution (the exact concentrations may vary depending on the pipettors used in each case). IC50 values were calculated using a 4-parameter fit, with the aid of inhouse software.
Table 1 below lists the IC50 values from this assay for individual working examples (in some cases as means of several independent individual determinations): […]

T1 sequence (Q02763 776-1124): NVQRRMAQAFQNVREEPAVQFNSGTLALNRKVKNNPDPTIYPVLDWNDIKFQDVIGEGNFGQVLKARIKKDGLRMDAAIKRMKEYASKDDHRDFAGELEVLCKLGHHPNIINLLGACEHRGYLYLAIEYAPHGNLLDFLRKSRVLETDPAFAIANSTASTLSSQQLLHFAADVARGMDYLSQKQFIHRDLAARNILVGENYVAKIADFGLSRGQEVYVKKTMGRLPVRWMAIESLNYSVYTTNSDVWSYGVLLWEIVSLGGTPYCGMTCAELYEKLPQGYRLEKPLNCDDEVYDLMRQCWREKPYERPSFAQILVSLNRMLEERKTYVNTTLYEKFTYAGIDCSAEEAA

Compound | IC50 [nM]
Cc1ccc(NC(=O)c2cc(N3CCNCC3)cc(S(F)(F)(F)(F)F)c2)cc1-n1ccn2nc(-c3cn[nH]c3)cc12 [Example 1, N-{4-Methyl-3-[6-(1H-pyrazol-4-yl)-1H-imidazo[1,2-b]pyrazol-1-yl]phenyl}-3-(pentafluoro-λ^6-sulphanyl)-5-(piperazin-1-yl)benzamide] | 0.3
Cc1ccc(NC(=O)c2cccc(C(F)(F)F)c2)cc1-n1ccn2nc(-c3cn[nH]c3)cc12 [Example 5, N-{4-Methyl-3-[6-(1H-pyrazol-4-yl)-1H-imidazo[1,2-b]pyrazol-1-yl]phenyl}-3-(trifluoromethyl)-benzamide] | 380
Cc1ccc(NC(=O)c2cccc(C(C)(C)C)c2)cc1-n1ccn2nc(-c3cn[nH]c3)cc12 [Example 7, 3-tert-Butyl-N-{4-methyl-3-[6-(1H-pyrazol-4-yl)-1H-imidazo[1,2-b]pyrazol-1-yl]phenyl}-benzamide] | 105
Cc1ccc(NC(=O)c2cc(N3CCN(C)CC3)cc(C(C)(C)C)c2)cc1-n1ccn2nc(-c3cn[nH]c3)cc12 [Example 8, 3-tert-Butyl-5-(4-methylpiperazin-1-yl)-N-{4-methyl-3-[6-(1H-pyrazol-4-yl)-1H-imidazo[1,2-b]-pyrazol-1-yl]phenyl}benzamide] | 1.9
Cc1ccc(NC(=O)c2cc(CN3CCCC3)cc(C(C)(C)C)c2)cc1-n1ccn2nc(-c3cn[nH]c3)cc12 [Example 9, 3-tert-Butyl-N-{4-methyl-3-[6-(1H-pyrazol-4-yl)-1H-imidazo[1,2-b]pyrazol-1-yl]phenyl}-5-(pyrrolidin-1-ylmethyl)benzamide] | 6.7
Cc1ccc(NC(=O)c2cc(N3CCNCC3)cc(S(F)(F)(F)(F)F)c2)cc1-n1cc(C)n2nc(-c3cn[nH]c3)cc12 [Example 10, N-{4-Methyl-3-[3-methyl-6-(1H-pyrazol-4-yl)-1H-imidazo[1,2-b]pyrazol-1-yl]phenyl}-3-(pentafluoro-λ^6-sulphanyl)-5-(piperazin-1-yl)benzamide] | 0.3
Cc1ccc(NC(=O)c2cc(N3CCN(C)CC3)cc(S(F)(F)(F)(F)F)c2)cc1-n1cc(C)n2nc(-c3cn[nH]c3)cc12 [Example 11, N-{4-Methyl-3-[3-methyl-6-(1H-pyrazol-4-yl)-1H-imidazo[1,2-b]pyrazol-1-yl]phenyl}-3-(4-methylpiperazin-1-yl)-5-(pentafluoro-λ^6-sulphanyl)benzamide] | 0.3
COc1cc(C(=O)Nc2ccc(C)c(-n3cc(C)n4nc(-c5cn[nH]c5)cc34)c2)cc(S(F)(F)(F)(F)F)c1 [Example 13, 3-Methoxy-N-{4-methyl-3-[3-methyl-6-(1H-pyrazol-4-yl)-1H-imidazo[1,2-b]pyrazol-1-yl]-phenyl}-5-(pentafluoro-λ^6-sulphanyl)benzamide] | 1.3
Cc1ccc(NC(=O)c2cc(-n3ccnc3C)cc(C(F)(F)F)c2)cc1-n1cc(C)n2nc(-c3cn[nH]c3)cc12 [Example 14, 3-(2-Methyl-1H-imidazol-1-yl)-N-{4-methyl-3-[3-methyl-6-(1H-pyrazol-4-yl)-1H-imidazo[1,2-b]-pyrazol-1-yl]phenyl}-5-(trifluoromethyl)benzamide] | 0.4
Cc1ccc(NC(=O)c2cccc(S(F)(F)(F)(F)F)c2)cc1-n1ccn2nc(-c3cccnc3)cc12 [Example 15, N-{4-Methyl-3-[6-(pyridin-3-yl)-1H-imidazo[1,2-b]pyrazol-1-yl]phenyl}-3-(pentafluoro-λ^6-sulphanyl)benzamide] | 24
Cc1ccc(NC(=O)c2cc(N3CCNCC3)cc(S(F)(F)(F)(F)F)c2)cc1-n1ccn2nc(-c3cccnc3)cc12 [Example 17, N-{4-Methyl-3-[6-(pyridin-3-yl)-1H-imidazo[1,2-b]pyrazol-1-yl]phenyl}-3-(pentafluoro-λ^6-sulphanyl)-5-(piperazin-1-yl)benzamide] | 0.3
Cc1ccc(NC(=O)c2cc(N3CCOCC3)cc(S(F)(F)(F)(F)F)c2)cc1-n1ccn2nc(-c3cccnc3)cc12 [Example 19, N-{4-Methyl-3-[6-(pyridin-3-yl)-1H-imidazo[1,2-b]pyrazol-1-yl]phenyl}-3-(morpholin-4-yl)-5-(pentafluoro-λ^6-sulphanyl)benzamide] | 0.9
